Laboratory results reported in PMC12362764, “Novel Cyano‐Artemisinin Dimer ZQJ29 Targets PARP1 to Induce Ferroptosis in Pancreatic Cancer Treatment” (Advanced Science, 2025).

Assays:
HeLa = experiment: CCK-8 cytotoxicity assay, HeLa; type: cell-based; conditions: Homo sapiens, 72 h
Procedure: (§1) Cell viability was evaluated using the Cell Counting Kit‐8 (Beyotime, Shanghai, China) assay. Cells were seeded in 96‐well plates at a density of 2×10^3 cells to allow for attachment. After treatment with ZQJ29 (0.001, 0.01, 0.1, 10, and 25 µM) for 24, 48, and 72 h, 10 µL of CCK‐8 solution was added to each well and incubated for 1 h. The optical density values were then measured at 450 nm using a multifunctional enzyme‐linked immunosorbent assay reader (Tecan, Spark, Switzerland).

PARP1 [1] = biological target: PARP1 (Homo sapiens, UniProt P09874); experiment: SPR analysis (Biacore S200); type: binding; design: purchased Sino Biological 11040‐H08B; conditions: 25 °C, Steady State Affinity model
Sequence of PARP1 (Homo sapiens, UniProt P09874) (P09874 whole entry): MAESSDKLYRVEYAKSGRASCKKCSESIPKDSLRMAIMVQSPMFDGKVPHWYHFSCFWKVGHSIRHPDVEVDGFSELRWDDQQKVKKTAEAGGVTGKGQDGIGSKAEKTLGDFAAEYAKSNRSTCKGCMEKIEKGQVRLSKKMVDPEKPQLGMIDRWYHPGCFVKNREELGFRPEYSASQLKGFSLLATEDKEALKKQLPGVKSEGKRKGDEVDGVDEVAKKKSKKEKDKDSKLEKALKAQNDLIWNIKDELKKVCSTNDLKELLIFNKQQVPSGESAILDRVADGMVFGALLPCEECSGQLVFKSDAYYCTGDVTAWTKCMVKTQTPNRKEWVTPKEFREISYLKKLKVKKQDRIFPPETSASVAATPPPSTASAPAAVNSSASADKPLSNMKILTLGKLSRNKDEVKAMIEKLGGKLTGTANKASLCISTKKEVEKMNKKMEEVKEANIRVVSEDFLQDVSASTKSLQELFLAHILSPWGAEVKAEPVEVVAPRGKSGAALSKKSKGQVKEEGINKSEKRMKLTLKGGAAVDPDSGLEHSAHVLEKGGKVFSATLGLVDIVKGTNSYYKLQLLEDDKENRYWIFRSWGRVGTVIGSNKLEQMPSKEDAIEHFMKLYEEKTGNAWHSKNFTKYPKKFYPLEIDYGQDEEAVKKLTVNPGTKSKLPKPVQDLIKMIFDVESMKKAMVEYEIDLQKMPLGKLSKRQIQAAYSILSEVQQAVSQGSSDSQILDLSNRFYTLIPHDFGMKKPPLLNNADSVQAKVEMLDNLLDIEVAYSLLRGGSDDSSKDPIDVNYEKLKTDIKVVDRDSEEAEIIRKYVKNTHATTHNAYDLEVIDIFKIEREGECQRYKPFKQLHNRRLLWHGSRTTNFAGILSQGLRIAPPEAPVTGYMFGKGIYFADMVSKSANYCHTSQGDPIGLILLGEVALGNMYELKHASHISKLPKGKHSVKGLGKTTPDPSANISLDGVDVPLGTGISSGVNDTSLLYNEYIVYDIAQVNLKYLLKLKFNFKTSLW
Procedure: The interaction between ZQJ29 and PARP1 was assessed by SPR with the Biacore S200 system at 25 °C (Cytiva). Recombinant human PARP1 protein (Sino Biological, 11040‐H08B) was immobilized on an activated carboxymethylated 5 (CM5) sensor chip using the amine coupling method. Gradient concentrations of 3 were injected at a flow rate of 40 µL min^−1 in a running buffer [5% (v/v) DMSO in PBS·P]. The results were analyzed with the Biacore evaluation software (S200 version). Data were fitted to the Steady State Affinity model, and kinetic parameters were derived.

PANC-1 tumors = experiment: PANC-1 subcutaneous xenograft antitumor activity; type: in vivo, BALB/c nude mice
Procedure: Five‐week‐old male BALB/c nude mice were purchased from Shanghai Jihui Laboratory Animal Breeding Co., Ltd. (Shanghai, China). After a one‐week acclimatization period, PANC‐1 cells were subcutaneously injected at a dose of 5 × 10^6 cells per mouse. Four weeks post‐injection, once tumor volumes reached 50–100 mm^3, the tumor‐bearing animals were randomly divided into four groups, each consisting of six animals. ZQJ29 was prepared in a 0.5% CMC‐Na solution, while OXA was dissolved in saline. The control group was treated with oral gavage of 0.5% CMC‐Na, while the positive control group was administered intraperitoneal injections of OXA at a dosage of 3 mg kg^−1 every three days. The test groups were treated with oral gavage of ZQJ29 at dosages of 25 and 50 mg kg day^−1. Mouse weights were monitored every other day. Tumor measurements were taken every other day using calipers, and the tumor volume was calculated using the following formula: ½ × length × width^2. Drug administered continued for three weeks. After blood collection at the end of the administration, the mice were humanely euthanized, and their vital organs were promptly harvested, preserved, and embedded in paraffin for H&E staining.

[2] = test system: PARP1, TP53, SLC7A11, and GPX4; experiment: Western blot of PARP1, TP53, SLC7A11 and GPX4 in cells; type: cell-based; conditions: PANC-1 and KP4 cell lines, dose-dependent
Procedure: (§2) For western blotting analysis, ZQJ29‐treated cells were lysed with RIPA Lysis Buffer (Yeasen, Shanghai, China) containing protease and phosphatase inhibitors (Yeasen, Shanghai, China) on ice. The cell lysates were quantified using the BCA Protein Assay Kit (Beyotime, Shanghai, China). Samples were subjected to SDS‐PAGE and transferred to PVDF membranes (Beyotime, Shanghai, China). The membranes were blocked with 5% nonfat milk in TBST (Buffered Saline with 0.1% Tween 20) for 1 h, followed by overnight incubation at 4 °C with primary antibodies. After washing the membranes three times with TBST, they were incubated with the appropriate secondary antibodies for 2 h at room temperature. Following another three times with TBST, the bands on the membranes were detected using the ECL‐Plus Western Blotting Detection System (Yeasen, Shanghai, China).

PANC-1 and KP4 cells [3] = experiment: Wound healing (cell migration) assay; type: cell-based; conditions: 0, 1, 2.5, 5 µM; 12 and 24 h
Procedure: PANC‐1 and KP4 cells were cultured in 6‐well plates until complete confluence was reached. A “scratch” or “wound” was made with a sterile 10 µL pipette tip. Following this, the cells were treated with varying concentrations of ZQJ29 (0, 1, 2.5, and 5 µM). After 12 and 24 h, migration activity were observed and captured using an inverted EVOS microscope (Thermo Fisher Scientific, USA). The number of migrated cells were then quantified.

HEK-293T = experiment: CCK-8 cytotoxicity assay, HEK-293T (normal cell line); type: cell-based; conditions: Homo sapiens, 72 h
Procedure: as §1

MCF = experiment: CCK-8 cytotoxicity assay, MCF; type: cell-based; conditions: 72 h
Procedure: as §1

HPDE6-C7 = experiment: CCK-8 cytotoxicity assay, HPDE6-C7 (normal cell line); type: cell-based; conditions: HPDE6c7, 72 h
Procedure: as §1

THLE-2 = experiment: CCK-8 cytotoxicity assay, THLE-2 (normal cell line); type: cell-based; conditions: Homo sapiens, 72 h
Procedure: as §1

PANC-1 and KP4 cells [4] = experiment: Ferroptosis markers (lipid ROS, iron, MDA, GSH); type: cell-based; conditions: 0, 1, 2.5, 5 µM, 24 h of ZQJ29 treatment
HCT116 = experiment: CCK-8 cytotoxicity assay, HCT116; type: cell-based; conditions: Homo sapiens, HCT-116; HCT116, 72 h
Procedure: as §1

KP4 = experiment: CCK-8 cytotoxicity assay, KP4; type: cell-based
Procedure: as §1

JHH7 = experiment: CCK-8 cytotoxicity assay, JHH7; type: cell-based; conditions: JHH7, 72 h
Procedure: as §1

PARP1 [5] = experiment: PARP1 expression (western blot, immunofluorescence); type: cell-based
Procedure: as §2
PARP1 expression in the cell nucleus was detected using immunofluorescence. The cells were seeded in a 12‐well plate and treated with ZQJ29 (0, 1, 2.5, and 5 µM) after complete adhesion. After a specific duration of treatment, fixation, blocking, and antibody incubation were performed, and images were captured using a Cytation 5‐cell imaging microplate detection system.

PANC-1 and KP4 cells [6] = experiment: Mitochondrial membrane potential assay (JC-1); type: cell-based; conditions: 24 h
Procedure: Mitochondrial membrane potential assay kits with JC‐1 (Beyotime, Shanghai, China) were used to measure the alteration of mitochondrial membrane potential (ΔΨm). After being treated with different concentrations of ZQJ29 (0, 1, 2.5, and 5 µM) for 24 h, cells were treated with the positive control reagent CCCP (10 µM) for 30 min at 37 °C. The cells were rinsed once with PBS, and the JC‐1 staining working solution was added for 30 min at 37 °C in the dark. Afterward, the cells were washed twice with 1 × JC‐1 staining buffer. Fluorescent images of the JC‐1‐stained cells were captured with a fluorescence microscope Cytation5 (BioTek, America).

[7] = tumor tissue and proteomic analyses

## CC1CCC2C(C)C(OCCN(C#N)CCOC3OC4OC5(C)CCC6C(C)CCC(C3C)C46OO5)OC3OC4(C)CCC1C32OO4 (centres unmarked) [ZQJ29]
HeLa
  IC50: 1280 ± 289 nM
PARP1 [1]
  Kd: 2860 nM
PANC-1 tumors; 25 or 50 mg/kg oral, vs control group
  tumor size and weight: significantly reduced
PANC-1 tumors; ZQJ29 25 and 50 mg/kg/day oral gavage, OXA 3 mg/kg i.p. every three days, three weeks, vs control
  tumor growth: effectively inhibited
PANC-1 tumors; after treatment, vs control
  expression of Ki67 and PCNA in tumor tissue (IHC): significantly reduced
PANC-1 tumors; [7]
  expression of PARP1, SLC7A11 and GPX4: downregulated
  expression of TP53: upregulated
[2]
  expression of PARP1, SLC7A11 and GPX4: downregulated
  expression of TP53: upregulated
PANC-1 and KP4 cells [3]
  migration abilities: impaired
HEK-293T
  IC50: > 10000 nM
MCF
  IC50: 759 ± 311 nM
HPDE6-C7
  IC50: > 10000 nM
THLE-2
  IC50: > 10000 nM
PANC-1 and KP4 cells [4]
  intracellular ROS, iron, MDA and GSH levels: increased ROS release, iron accumulation, MDA production, and GSH depletion
HCT116
  IC50: 1020 ± 500 nM
KP4; Homo sapiens, KP-4, KP4, as printed in the text
  IC50: 885 ± 106 nM
KP4; KP4 cells
  enhanced cytotoxic effect compared to OXA and DHA: 10 fold
KP4; discussion, cell line not stated
  potency of antitumor over DHA: 10 fold
JHH7
  IC50: 791 ± 305 nM
PARP1 [5]; PANC-1 and KP4 cells, 0, 1, 2.5, 5 µM, 24 h
  nucleoplasmic PARP1 levels (immunofluorescence): remarkably reduced
PARP1 [5]; PANC-1 and KP4 cells, time- and concentration-dependent
  PARP1 expression (western blot): significantly reduced
PANC-1 and KP4 cells [6]
  mitochondrial membrane potential (MMP), JC-1: decrease in MMP
